In PMC8149581 (Chemistry of Heterocyclic Compounds, 2021):
Values after ≈ are worked out from the molar mass of the structure shown.

System: influenza A/Puerto Rico/8/34 (H1N1) virus
Type: cell-based

| Compound | IC50 (antiviral activity) [µg/mL] |
| --- | --- |
| Nc1c(Br)cc([N+](=O)[O-])cc1-c1nnn(C23CC4CC(CC(C4)C2)C3)n1 [Compound 3h, 2-[2-(Adamantan-1-yl)-2 H -tetrazol-5-yl]-6-bromo-4-nitroaniline] | 15 ± 3 (≈ 35.8 µM) |
| Nc1cc(-c2nnn(C34CC5CC(CC(C5)C3)C4)n2)ccc1O [Compound 3i, 4-[2-(Adamantan-1-yl)-2 H -tetrazol-5-yl]-2-aminophenol] | 15 ± 2 (≈ 48.2 µM) |
| CC(N)C12CC3CC(CC(C3)C1)C2 (stereo not drawn) [Rimantadine, reference compound] | 12 ± 2 (≈ 66.9 µM) |
